Data taken from publication PMC3135366 (The Journal of Experimental Medicine, 2011).

Target: T1, E. coli DOXPRI (Escherichia coli, UniProt P45568)
T1 sequence (P45568 1-398): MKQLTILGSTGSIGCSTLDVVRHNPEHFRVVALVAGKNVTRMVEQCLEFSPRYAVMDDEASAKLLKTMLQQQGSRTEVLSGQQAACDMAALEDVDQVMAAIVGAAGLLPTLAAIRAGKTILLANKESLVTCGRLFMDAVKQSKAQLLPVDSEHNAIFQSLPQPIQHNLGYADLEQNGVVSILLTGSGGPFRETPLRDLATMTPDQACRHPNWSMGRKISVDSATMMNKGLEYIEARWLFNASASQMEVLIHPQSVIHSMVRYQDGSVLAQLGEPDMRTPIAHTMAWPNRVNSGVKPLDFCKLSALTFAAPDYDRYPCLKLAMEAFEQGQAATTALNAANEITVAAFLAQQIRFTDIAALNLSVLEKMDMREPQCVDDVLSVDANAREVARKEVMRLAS
Test: NADPH oxidation assay
Assay type: biochemical

NC(=O)C1=CN([C@@H]2O[C@H](COP(=O)(O)OP(=O)(O)OC[C@H]3O[C@@H](n4cnc5c(N)ncnc54)[C@H](OP(=O)(O)O)[C@@H]3O)[C@@H](O)[C@H]2O)C=CC1 [NADPH]
NADPH oxidation assay: noted robust activity for the E. coli enzyme expressed in parallel
